Results as given in patent US8071654B2, “Inhibitors of thromboxane formation and action” (priority 2000, dated 2011).

Assays:
TX synthase = biological target: T1, TX synthase (Homo sapiens, UniProt P24557); assay: collagen-evoked TxB2 (and HHT) formation in washed human platelets, HPLC; format: cell-based; conditions: for TX enzyme activity (% of control values, mean ± SD): n = 3, TxB2 and HHT
T1 construct: endogenous in cells; host or cells: washed human platelets
T1 sequence (P24557 1-533): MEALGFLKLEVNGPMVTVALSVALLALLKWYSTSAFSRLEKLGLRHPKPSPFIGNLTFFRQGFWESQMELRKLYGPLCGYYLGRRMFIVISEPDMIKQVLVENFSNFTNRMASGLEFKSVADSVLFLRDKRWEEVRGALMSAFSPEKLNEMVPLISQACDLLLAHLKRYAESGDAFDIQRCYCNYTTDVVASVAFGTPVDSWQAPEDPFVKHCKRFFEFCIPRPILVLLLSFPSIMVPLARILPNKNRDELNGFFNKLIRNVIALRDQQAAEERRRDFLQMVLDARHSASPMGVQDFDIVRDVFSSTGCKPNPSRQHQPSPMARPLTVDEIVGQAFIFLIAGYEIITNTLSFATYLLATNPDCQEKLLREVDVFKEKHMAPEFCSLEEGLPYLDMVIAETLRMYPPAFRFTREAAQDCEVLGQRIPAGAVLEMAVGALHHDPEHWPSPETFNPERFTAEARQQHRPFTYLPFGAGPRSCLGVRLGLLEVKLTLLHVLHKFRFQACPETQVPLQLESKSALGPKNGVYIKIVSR
Procedure: (§1) 0.5 ml of platelet suspension was added to siliconized glass tubes (four at a time) and heated with magnetic stirring to 37° for 1 min in a platelet aggregometer (PAP-4C). Either vehicle alone (ethanol, 1 μl) or hepoxilin analog was then added, followed two min later by agonist (collagen: 2 μg; PGH2: 100 ng/0.5 ml; U46619: 10 ng/0.5 ml or I-BOP: 2 ng/0.5 ml). The response was recorded for the next 5 min. In experiments where analysis of TxB2 and HHT were to be made by HPLC, the platelet suspension at the end of the experiment was diluted with ethyl acetate, 100 ng of prostaglandin B1 was added as internal standard, and the mixture was acidified to pH 3 with 0.1 N HCl. After centrifugation, the organic layer was separated, washed twice with water to neutrality, and evaporated to dryness. Half of the sample was taken and was resuspended in 1 ml ethyl acetate containing 20 μg ADAM reagent, and was left in the dark for 2 h (38). The solvent was then evaporated and the residue was acetylated with a solution of pyridine/acetic anhydride (3/1, v/v) during 16 h at 23°. The reagents were evaporated to dryness and the residue was resuspended in acetonitrile/water for HPLC analysis. In experiments where the conversion of tritiated PGH2 was to be monitored, the procedure described above was repeated with tritiated PGH2 instead of unlabeled PGH2. After extraction of the sample as described above, the radiolabeled compounds were analyzed by TLC. Dose response curves for varying amounts of test compounds were generated and the data expressed as % inhibition of collagen-induced platelet aggregation. Each point was investigated 5 times and statistical analysis of the data was carried out using Macintosh Statview statistical software.
Measurement of eicosanoids formed by platelets during treatment with collagen or the TP receptor agonists in the presence or absence of PBT-3 was carried out by HPLC after appropriate derivatization with a fluorescent tag (anthracyl diazomethane—ADAM) which forms a fluorescent ester (44). The method was adapted to measure the following compounds: TxB2, HHT, 12-HETE and M. The platelet suspension at the end of the experiment was mixed with ethyl acetate, 100 ng of prostaglandin B1 was added as internal standard and the mixture was acidified to pH 3 with 0.1 N HCl. After centrifugation, the organic layer was separated, washed twice with water to neutrality, and evaporated to dryness. The residue was resuspended in ethyl acetate and half of the sample was taken. It was diluted to 0.2 ml with ethyl acetate containing 20 μg ADAM reagent, and was left in the dark for 2 h. The solvent was then evaporated and the residue was acetylated with a solution of pyridine/acetic anhydride (3/1, v/v) for 16 h at 23°. The reagents were evaporated to dryness and the residue was resuspended in acetonitrile/water for HPLC analysis. Dose response curves for varying amounts of test compounds were generated and the data were expressed as % inhibition of agonist-induced platelet aggregation. Each point was investigated 3 times and statistical analysis of the data was carried out using Macintosh Statview statistical software.
Analysis of the anthryl (ADAM)-acetate derivative of TxB2, HHT and 12 HETE in the extracted platelet samples was carried out on a Hewlett Packard (1100 series) HPLC to which was attached a Shimadzu fluorescent detector (RF-10AXL). The detector was operated with excitation at 364 nm, emission at 411 nm. Chromatographic separation of the compound was carried out on a Waters C18 Novapak column (3.9×300 mm) using acetonitrile/water 80/20 at injection with a linear gradient to 100% acetonitrile during 20 min. TLC separation of tritiated platelet extracts was carried out on 20 cm silica gel G glass plates (Brinkman), with chloroform/methanol/acetic acid/water (90/9/1/0.65, v/v) as developing solvent in a paper lined glass tank at 23°. […]

TP receptor = biological target: T2, TP receptor (Homo sapiens, UniProt P21731); assay: platelet aggregation evoked by the TxA2 mimic U46619; format: cell-based
T2 construct: endogenous in cells; host or cells: washed human platelets
T2 sequence (P21731 1-343): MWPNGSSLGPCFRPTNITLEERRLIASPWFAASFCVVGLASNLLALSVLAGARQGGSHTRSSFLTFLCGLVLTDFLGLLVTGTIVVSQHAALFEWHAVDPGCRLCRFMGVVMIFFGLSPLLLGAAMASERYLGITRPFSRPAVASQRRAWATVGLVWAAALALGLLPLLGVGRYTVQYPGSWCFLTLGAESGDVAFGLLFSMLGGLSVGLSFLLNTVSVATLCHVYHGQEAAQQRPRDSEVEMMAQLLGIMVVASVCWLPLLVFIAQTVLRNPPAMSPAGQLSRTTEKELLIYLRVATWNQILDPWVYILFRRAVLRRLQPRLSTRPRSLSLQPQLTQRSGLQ
Procedure: Venous blood was obtained from healthy human subjects who had not taken NSAID's for at least two weeks. Blood was drawn into plastic syringes containing ACD. It was immediately centrifuged at 23° at 200×g for 15 min. The platelet rich plasma was transferred into fresh plastic tubes and centrifuged at 400×g for 5 min. The supernatant was discarded and the platelet sediment was resuspended in fresh medium containing NaCl (137 mM), KCl (1 mM), NaH2PO4, glucose (5.5 mM), HEPES (20 mM) and CaCl2 (1 mM) and allowed to stand at room temperature for 30 min. A platelet count was made, which determined the volume of platelet suspension needed to make up 350×10^6 cells for each measurement. The aliquot was diluted with medium to make 0.5 ml/assay/cuvette. Appropriate calibration of the aggregometer (PAP-4C) for 0% and 100% transmission was carried out through the use of a sample of platelet suspension and cell-free medium (37).
as §1

TX enzyme activity (% of control values, mean ± SD) (TX synthase; PBT-3 0.05 μM): 94.2 ± 15.2^NS % of control | TX enzyme activity (% of control values, mean ± SD) (TX synthase; PBT-3 0.30 μM): 65.7 ± 6.0 % of control | TX enzyme activity (% of control values, mean ± SD) (TX synthase; PBT-3 0.60 μM): 41.0 ± 4.7 % of control | TX enzyme activity (% of control values, mean ± SD) (TX synthase; PBT-3 3.00 μM): 29.9 ± 6.7 % of control | inhibition of TxB2 formation in platelets, in words (TX synthase; Table 1, last column): significantly inhibited | IC50 (TX synthase; washed human platelets, read-out: IC50 for block of collagen-evoked formation of thromboxane): 800 nM | effect on U46619-induced aggregation in aspirin-treated platelets (TP receptor; PBT-3 added after aspirin, before U46619): blockade of the aggregation | IC50 (TP receptor; U46619 10 ng/0.5 ml, read-out: IC50 for inhibition of aggregation evoked by U46619): 700 nM | inhibition of aggregation evoked by U46619 (TP receptor; dose of 1 μg): inhibited the aggregation
Structure (SMILES): CCCCC/C=C\CC1CC1[C@@H](O)/C=C\C/C=C\CCCC(=O)OC (stereo partly drawn) [PBT-3, 10(S)-hydroxy-11,12-cyclopropyl-eicosa-5Z,8Z,14Z-trienoic acid methyl ester]
